Test results reported in patent US4980362A, “4-substituted-2-alkoxytetrahydrofuran derivatives” (J. Uriach & CIA. S.A., priority 1990, dated 1990).

Legend:
PAF-induced mortality = assay: Test 3: PAF-induced mortality in mice (p.o.); format: in vivo, mouse (Swiss); conditions: 1 hour before C18-PAF 100 mcg/kg plus propanolol 1 mg/kg i.v., inhibition of mortality, observed 2 hours after PAF; for ED50: Mus musculus, po, 2 h, read-out: ID50 (the source's name)
Experimental: Finally, certain compounds of the present invention show an improved oral activity with regard to other chemically related PAF-antagonists reported in the literature, such as CV-6209, (disclosed in EP No. 157609) as shown by test 3:
Test 3 - PAF-induced mortality in mice (p.o.)
The experiment is carried out according to the method of Young et al. (Prostaglandins, 1985, 30, 545-551). Groups of 10 Swiss mice weighing 22-26 g are used. 100 mcg/kg of C18 -PAF plus 1 mg/kg of propanolol are intravenously administered in a lateral tail vein 1 hour after the oral administration of test compounds (0.1 mL/10 g). Every animal is observed 2 hours after the PAF injection. Percent inhibition of mortality due to treatments in comparison with control group are recorded. Results are given as ID50 values (mg/kg) in table 3.

[1] = system: platelet aggregation induced by PAF; assay: Test 1: Inhibition of platelet aggregation induced by PAF; format: cell-based, rabbit (male New Zealand albino); conditions: rabbit platelet rich plasma, PAF (C18) 16 nM final, Born nephelometric technique
Experimental: Test 1: Inhibition of platelet aggregation induced by PAF.
The blood is obtained by cardiac puncture of male New Zealand albino rabbits (between 2 and 2.5 Kg of weight) and coagulation is prevented by adding 1 part of 3.16% sodium citrate dihydrate in 9 parts of blood. The platelet rich plasma (PRP) is prepared by blood centrifugation at 250×g for 10 min. at 4° C. and it is diluted with platelet poor plasma (PPP) by additional centrifugation at 3000×g for 10 min. The amount of platelets is adjusted to […]. The platelet aggregation induced by PAF (C18; prepared in our laboratory) (16 nM, final) is determined by the Born nephelometric technique (J. Physiol., 1962, 162, 67) using a aggregometer Chrono-log 500. The activities of the inhibitors are expressed as IC50, that is to say the concentration of the drug needed to inhibit the platelet aggregation by 50%.

[2] = system: hypotension induced by PAF; assay: Test 2: Inhibition of the hypotensive effect induced by PAF in normotense rats; format: in vivo, rat (male Sprage Dawley); conditions: anesthetized male rats, compound 3 min before PAF 0.5 mcg/Kg i.v., text calls it IC50; for ED50: Rattus norvegicus, iv, read-out: CI50 (the source's name); for CI50: i.v.
Experimental: Test 2 - Inhibition of the hypotensive effect induced by PAF in normotense rats.
Male Sprage Dawley rats, of 180-220 g of weight, anesthetized with sodium pentobarbital (50 mg/Kg, i.p. 1 mL/100 g) have been used. In order to measure the average arterial pressure, a polyethylene catheter is introduced into the carotid artery. The arterial pressure is recorded with the help of a transducer connected with a R611 Beckman polygraph. The tested compounds are administered through the femoral vein 3 min before the injection of PAF (0.5 mcg/Kg, i.v.).

[3] = Oryctolagus cuniculus, Platelet

Row | SMILES | ED50 (PAF-induced mortality) [mg/kg] | IC50 [1, 3] [nM] | ED50 [2] [mg/kg] | CI50 [2] [mg/kg] | IC50 [1] [nM] | ID50 (PAF-induced mortality; 120 min) [mg/kg]
1 | CCCCCCCCCCCCCCCCCCNC(=O)OCC(COC(=O)N(Cc1cccc[n+]1CC)C(C)=O)OC (stereo not shown) [CV-6209, reference compound] | 70 |  |  |  |  | 
2 | CC[n+]1ccccc1CN(C(C)=O)C(=O)OCC1COC(OCCCc2ccccc2)C1 (racemic) [Compound 17, (±)-cis,trans-1-ethyl-2-[N-acetyl-N-[[[(2-(3-phenylpropoxy)tetrahydrofuran-4-yl)methoxy]carbonyl]amino]methyl]pyridinium iodide] |  | 190 | 0.12 |  |  | 
3 | CC[n+]1ccccc1CN(C(C)=O)C(=O)OCC1COC(OCCC(C)C)C1 (racemic) [Compound 14, (±)-cis,trans-1-ethyl-2-[N-acetyl-N-[[[(2-(3-methylbutoxy)tetrahydrofuran-4-yl)methoxy]carbonyl]amino]methyl]pyridinium iodide] |  | 700 | 0.21 |  |  | 
4 | CCCCCCCCCCCCCCCCCCOC1CC(COC(=O)N(Cc2cccc[n+]2CC)C(C)=O)CO1 (racemic) [Compound 4, (±)-cis,trans-1-ethyl-2-[N-acetyl-N-[[[(2-octadecyloxytetrahydrofuran-4-yl)methoxy]carbonyl]amino]methyl]pyridinium iodide] | 14 | 16 |  | 0.053 |  | 
5 | CCCCCCCCCCCCCCCCCCOC1CC(COC(=O)N(Cc2cccc[n+]2C)C(C)=O)CO1 (racemic) [Compound 3, (±)-cis,trans-1-methyl-2-[N-acetyl-N-[[[(2-octadecyloxytetrahydrofuran-4-yl)methoxy]carbonyl]amino]methyl]pyridinium iodide] | > 100 | 45 | 0.08 |  |  | 
6 | CCOC1CC(COC(=O)N(Cc2cccc[n+]2CC)C(C)=O)CO1 (racemic) [Compound 11, (±)-cis,trans-1-ethyl-2-[N-acetyl-N-[[[(2-ethoxytetrahydrofuran-4-yl)methoxy]carbonyl]amino]methyl]pyridinium iodide] |  | 2900 | 2.3 |  |  | 
7 | CCCCCCCCCCCCCCCCCCOC1CC(COC(=O)N(Cc2cccc[n+]2CC)C(C)=O)CO1 (racemic) [Compound 5, (±)-cis,trans-1-ethyl-2-[N-acetyl-N-[[[(2-octadecyloxytetrahydrofuran-4-yl)methoxy[carbonyl[amino]methyl]pyridinium chloride] |  |  |  | 0.024 | 12 | 19
8 | CCCCCCCCCCCCCCCCOC1CC(COC(=O)N(Cc2cccc[n+]2CC)C(C)=O)CO1 (racemic) [Compound 8, (±)-cis,trans-1-ethyl-2-[N-acetyl-N-[[[(2-hexadecyloxytetrahydrofuran-4-yl)methoxy]carbonyl]amino]methyl]pyridinium iodide] | 80 | 12 | 0.01 |  |  | 
